# From patent US6423855B1, “Cytoprotective compounds” (Virginia Commonwealth University, priority 1996, dated 2002)
# Like-named read-outs stand apart in the source and are kept apart here.
# Columns and labels:
# [1] = tested on: PLA2 activities derived from human platelets and human polymorphonuclear leukocytes (PMNs); assay: in vitro PLA2 activities from human platelets and PMNs; format: biochemical; settings: unesterified cis-unsaturated fatty acids
# Text: Oxidation of the sarcoplasmic reticulum of muscle and of phospholipid membranes predisposes them to phospholipase degradation. Phospholipid membranes that have been oxidized at particular sites may appear intact and maintain functional activity, but their oxidation makes them vulnerable to degradation and destruction by PLA2 or other phospholipases from endogenous or exogenous sources.
# [2] = solubility in water; format: physicochemical
# Protocol: To 6.22 g (20.8 mmol) of ricinoleic acid and 4.00 g of triethylamine in 150 mL THF was added 2.31 g (9.0 mmol) of ethylenediamine tetraacetic acid dianhydride. After stirring 15 min at 40° C., 20 mL of acetonitrile was added, since ethylenediamine tetraacetic acid dianhydride was not dissolved completely. The solution was stirred for 72 h under reflux and gradually turned yellow during this time. The solvent was removed under reduced pressure. The mixture was suspended in 100 mL of ether and extracted twice with 50 mL of saturated aqueous sodium chloride. After drying the ether solution, the solvent was removed under reduced pressure. The residue was suspended in methanol and filtered. The solvent was removed under reduced pressure. The residual oil was purified by chromatography on silica gel, eluted with a gradient of acetone/methanol (70:30 v/v to 0:100 v/v). N,N-bis(oleic acid-12-oxycarbonylmethyl)-N-N′-bis(carboxylmethyl) ethylenediamine was isolated as a yellow solid with a yield of 1.23 g (14%).
# [3] = tested on: epidermis cell turnover; assay: cell turnover rate (dansyl chloride); format: in vivo, human
# Protocol: Two PX compounds PX-11 and PX-13 were evaluated in a cream formulation prepared under GMP. The chemicals were formulated into a bland cream and evaluated in the following human or mouse skin tests: (1) occluded patch test for irritation; (2) cell turnover rate; (3) transepidermal water loss; (4) skin moisturization; and (5) reduction in erythema after induced sunburn. The human skin tests were conducted on three volunteer female subjects, ages 29-32; a cream base with no added active was included as a control, while the untreated skin served as an additional basis for evaluation. Sunburn tests were performed on a total of 30 hairless albino mice. 2. Cell turnover rate: This parameter was measured by adsorption of dansyl chloride, in which 3% dansyl chloride was incorporated into petrolatum. This salve was applied over a 2.5 cm diameter circular area in the upper arm and a patch applied. 24 hours later the patch was removed. The intensity of dansyl chloride fluorescence was indicative of the cell turnover rate in the epidermis.
# [4] = tested on: epidermal layer; assay: transepidermal water loss; format: in vivo, human
# Protocol: (§1) Two PX compounds PX-11 and PX-13 were evaluated in a cream formulation prepared under GMP. The chemicals were formulated into a bland cream and evaluated in the following human or mouse skin tests: (1) occluded patch test for irritation; (2) cell turnover rate; (3) transepidermal water loss; (4) skin moisturization; and (5) reduction in erythema after induced sunburn. The human skin tests were conducted on three volunteer female subjects, ages 29-32; a cream base with no added active was included as a control, while the untreated skin served as an additional basis for evaluation. Sunburn tests were performed on a total of 30 hairless albino mice. 3. Transepidermal water loss. This parameter was measured by affixing a flow cell on the forearm site, applying the cream, waiting 20 minutes, then flushing the volume with nitrogen and noting the moisture content of the effluent gases.
# [5] = tested on: outer skin layers; assay: skin moisturization (20 megahertz ultrasound); format: in vivo, human; settings: for Ultrasound Density Score: 30 minutes after application
# Protocol: as §1, with “4. Skin moisturization. Skin moisturization” for “3. Transepidermal water loss. This parameter”, “using 20 megahertz ultrasound (the presence of moisture produces” for “by affixing”, “density decrease in” for “flow cell on”, “outer skin layers), before and 30 minutes after product application to” for “forearm site, applying”, “forearm.” for “cream, waiting 20 minutes, then flushing the volume with nitrogen and noting the moisture content of the effluent gases.”
# [6] = tested on: ultraviolet-induced erythema; assay: protection against ultraviolet-induced erythema; format: in vivo, hairless albino mice
# Protocol: The human skin tests were conducted on three volunteer female subjects, ages 29-32; a cream base with no added active was included as a control, while the untreated skin served as an additional basis for evaluation. Sunburn tests were performed on a total of 30 hairless albino mice.
# 5.Protection against ultraviolet-induced ervthema. The protection against ultraviolet-induced erythema (i.e., the burn and irritation produced after exposure to ultraviolet radiation), was measured by first irradiating 12 mice with destructive 3130 angstrom (Å) rays, applying the creams, and then evaluating the skin cells for erythema.
# [7] = tested on: clone W2 (P.falciparum); assay: 3H-hypoxanthine incorporation, P.falciparum clone W2; format: cell-based; settings: Plasmodium falciparum
# [8] = tested on: clone D6 (P. falciparum); assay: 3H-hypoxanthine incorporation, P.falciparum clone D6; format: cell-based; settings: Plasmodium falciparum
compound,measurement,setting,value
CCCCC/C=C\C/C=C\CCCCCCCC(=O)O [linoleic acid],inhibition of in vitro PLA2 activity,[1],inhibited
CCCCC/C=C\C/C=C\C/C=C\C/C=C\CCCC(=O)O [arachidonic acid],inhibition of in vitro PLA2 activity,[1],inhibited
CCCCCCCC/C=C\CCCCCCCC(=O)O [oleic acid],inhibition of in vitro PLA2 activity,[1],inhibited
"CCCCCCC(CC=CCCCCCCCC(=O)O)OC(=O)CN(CCN(CC(=O)O)CC(=O)OC(CC=CCCCCCCCC(=O)O)CCCCCC)CC(=O)O (centres unmarked) [N,N-Bis(oleic acid-12-oxycarbonylmethyl)-N-N′bis(carboxylmethyl) ethylenediamine]",solubility in water,[2],readily soluble in water
tricinyl trioleate [PX-11],Days to Cell Renewal Treated,"[3]; cream-treated skin, upper arm",28.8 days
same,% Change in Cell Turnover Time,[3]; treated vs untreated skin,+34%
same,% Change in Transepidermal Water Loss,"[4]; forearm, 20 minutes after applying cream",+649.0%
same,effect on water loss from the epidermal layer,[4]; in vivo,opened the pores and permitted water to escape
same,effectiveness at promoting water loss vs control,[4]; relative to control cream,10 times
same,Ultrasound Density Score,"[5]; Subject 1, 7 = Best, 1 = Baseline",3
same,Ultrasound Density Score,[5]; Subject 2,3
same,Ultrasound Density Score,[5]; Subject 3,1
same,Ultrasound Density Score Total,"[5]; Total of 3 subjects, 7 = Best, 1 = Baseline",7
same,moisturization properties,[5]; in vivo,good moisturization properties
same,Post-Radiation Erythema Ranking Mean,"[6]; Mean, 1 = Best, 4 = Worst",2
same,Post-Radiation Erythema Ranking,"[6]; Subject 1, 1 = Best, 4 = Worst",2
same,Post-Radiation Erythema Ranking,"[6]; Subject 2, 1 = Best, 4 = Worst",2
same,Post-Radiation Erythema Ranking,"[6]; Subject 3, 1 = Best, 4 = Worst",2
same,erythema reduction vs base cream,"[6]; mouse, in vivo",significantly better than the base cream
OC(c1cc(C(F)(F)F)nc2c(C(F)(F)F)cccc12)C1CCCCN1 (centres unmarked) [mefloquine],IC50,"[7]; printed as control cultures sensitive to both drugs, compared with clone W2, read-out: IC50 growth",1.3 ng/mL
same,IC50,"[8]; printed as control cultures sensitive to both drugs, compared with clone D6, read-out: IC50 growth",4.3 ng/mL
CCN(CC)CCCC(C)Nc1ccnc2cc(Cl)ccc12 (centres unmarked) [chloroquine],IC50,"[7]; W2, read-out: IC50 growth",30 ng/mL
same,IC50,"[8]; D6, read-out: IC50 growth",1.6 ng/mL
